Like-named read-outs stand apart in the source and are kept apart here.
What was measured:
[1] = target: T1, TYK2 (JH2domain-pseudokinase) (Homo sapiens, UniProt P29597); assay: TYK2 JH2 domain binding assay (KINOMEscan)
T1 construct: TYK2 (JH2domain-pseudokinase)-tagged T7 phage strains were prepared in an E. coli host derived from the BL21 strain; made in house; host or cells: E. coli BL21-derived host (T7 phage) or HEK-293 cells
How it was run: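 Kd values come from nonlinear least-squares fits of 11-point 3-fold dilutions (mostly 30,000 nM top, lowered when Kd fell below 0.5 nM). Test compound competed with bead-bound biotinylated ligand for qPCR-tagged TYK2 pseudokinase (JH2) domain, shaken 1 h at room temperature, with about 1% final DMSO.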

[2] = test system: STAT1/3 through TYK2/JAK1; assay: IFNa induced STAT phosphorylation in HEK293 cells (SIE-bla reporter gene); format: cell-based; conditions: HEK293T-sie-bla cells, IFNa at EC80, 4 hours, read-out: Inhibition of IFNa induced STAT phosphorylation HEK293 cells IC50
How it was run: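 Read-out was FRET from a β-lactamase reporter under a SIE promoter in HEK293T cells, with substrate added after a 4 h, 37°C co-incubation of compound and EC80 IFNa and left overnight in the dark. Compounds ran as 10-point 1/5 dilutions at 0.1% final DMSO; four-parameter log fit gave IC50.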

T1 sequence (P29597 589-875 limits assumed): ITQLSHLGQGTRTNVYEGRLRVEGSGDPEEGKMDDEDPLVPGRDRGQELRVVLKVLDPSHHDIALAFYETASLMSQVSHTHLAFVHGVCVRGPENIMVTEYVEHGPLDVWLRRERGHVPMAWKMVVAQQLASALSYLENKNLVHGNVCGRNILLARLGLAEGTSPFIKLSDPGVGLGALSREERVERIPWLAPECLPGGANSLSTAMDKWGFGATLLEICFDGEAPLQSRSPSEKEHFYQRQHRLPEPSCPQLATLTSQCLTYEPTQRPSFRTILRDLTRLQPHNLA

Row | Kd [1] [nM] | IC50 ([2]; Homo sapiens, HEK293) [nM] | IC50 [2] [nM] | Compound
1 | 1 to 10 | 100 to 1000 | – | Cc1cc(Nc2cc(Nc3ccccc3C(C)S(C)(=O)=O)ncn2)nc(C)n1 (stereo not shown) [Example 72, N4-(2,6-dimethylpyrimidin-4-yl)-N6-[2-(1-methylsulfonylethyl)phenyl]pyrimidine-4,6-diamine]
2 | < 0.2 | < 10 | – | Cc1cc(Nc2cc(Nc3nc(C)c(-c4cnn(C)c4C)cc3N(C)S(C)(=O)=O)ncn2)ncn1 [Example 163, N-[5-(1,5-dimethylpyrazol-4-yl)-6-methyl-2-[[6-[(6-methylpyrimidin-4-yl)amino]pyrimidin-4-yl]amino]-3-pyridyl]-N-methyl-methanesulfonamide]
3 | < 0.2 | – | < 10 | N-[5-(1,5-dimethylpyrazol-4-yl)-2-[[6-[(2,6-dimethylpyrimidin-4-yl)amino]pyrimidin-4-yl]amino]-3-pyridyl]-N-(trideuteriomethyl)methanesulfonamide [Example 133]
4 | < 0.2 | 10 to 100 | – | Cc1cc(Nc2cc(Nc3ncc(-c4cnn(C)c4C)cc3NS(C)(=O)=O)ncn2)nc(C)n1 [Example 144, N-[5-(1,5-dimethylpyrazol-4-yl)-2-[[6-[(2,6-dimethylpyrimidin-4-yl)amino]pyrimidin-4-yl]amino]-3-pyridyl]methanesulfonamide]
5 | < 0.2 | 10 to 100 | – | COc1c(-c2nc(C)n(C)n2)ccnc1Nc1cc(Nc2cc(C)nc(C)n2)ncn1 [Example 148, N4-(2,6-dimethylpyrimidin-4-yl)-N6-[4-(1,5-dimethyl-1,2,4-triazol-3-yl)-3-methoxy-2-pyridyl]pyrimidine-4,6-diamine]
6 | < 0.2 | 100 to 1000 | – | Cc1cc(Nc2cc(Nc3ncc(-c4nccn4C)cc3N(C)S(C)(=O)=O)ncn2)nc(C)n1 [Example 128, N-[2-[[6-[(2,6-dimethylpyrimidin-4-yl)amino]pyrimidin-4-yl]amino]-5-(1-methylimidazol-2-yl)-3-pyridyl]-N-methyl-methanesulfonamide]
7 | < 0.2 | 10 to 100 | – | CN=S(C)(=O)c1ccccc1Nc1cc(Nc2cc(C)nc(C)n2)ncn1 (stereo not shown) [Example 112, N6-(2,6-dimethylpyrimidin-4-yl)-N4-[2-(N,S-dimethylsulfonimidoyl)phenyl]pyrimidine-4,6-diamine]
8 | 0.2 to 1 | 10 to 100 | – | COc1c(Nc2cc(Nc3cc(C)nc(C)n3)ncn2)cccc1-c1nc(C)n(CC(F)(F)F)n1 [Example 38, N6-(2,6-dimethylpyrimidin-4-yl)-N4-[2-methoxy-3-[5-methyl-1-(2,2,2-trifluoroethyl)-1,2,4-triazol-3-yl]phenyl]pyrimidine-4,6-diamine]
9 | 0.2 to 1 | 100 to 1000 | – | COc1cc(-c2cnn(C)c2)c(C)nc1Nc1cc(Nc2cc(C)ncn2)ncn1 [Example 165, N4-[3-methoxy-6-methyl-5-(1-methylpyrazol-4-yl)-2-pyridyl]-N6-(6-methylpyrimidin-4-yl)pyrimidine-4,6-diamine]
10 | > 10 | > 1000 | – | CN(c1ccccc1Nc1cc(Nc2ncn(C)n2)ncn1)S(C)(=O)=O [Example 13, N-methyl-N-[2-[[6-[(1-methyl-1,2,4-triazol-3-yl)amino]pyrimidin-4-yl]amino]phenyl]methanesulfonamide]

Second part, the compound before the results:

Row | Compound | Kd [1] [nM] | IC50 ([2]; Homo sapiens, HEK293) [nM] | IC50 [2] [nM]
11 | Cc1cc(Nc2cc(Nc3ncc(-c4cnn(C)c4C)cc3P(C)(C)=O)ncn2)nc(C)n1 [Example 149, N6-[3-dimethylphosphoryl-5-(1,5-dimethylpyrazol-4-yl)-2-pyridyl]-N4-(2,6-dimethylpyrimidin-4-yl)pyrimidine-4,6-diamine] | < 0.2 | < 10 | –
12 | Cc1cc(Nc2cc(Nc3ncc(-c4nc(C(F)(F)F)n(C)n4)cc3N(C)S(C)(=O)=O)ncn2)nc(C)n1 [Example 122, N-[2-[[6-[(2,6-dimethylpyrimidin-4-yl)amino]pyrimidin-4-yl]amino]-5-[1-methyl-5-(trifluoromethyl)-1,2,4-triazol-3-yl]-3-pyridyl]-N-methyl-methanesulfonamide] | < 0.2 | 10 to 100 | –
13 | COc1c(Nc2cc(Nc3cc(C)nc(C)n3)ncn2)cccc1-c1nc(C)nn1C1COC1 [Example 48, N4-(2,6-dimethylpyrimidin-4-yl)-N6-[2-methoxy-3-[5-methyl-2-(oxetan-3-yl)-1,2,4-triazol-3-yl]phenyl]pyrimidine-4,6-diamine] | > 10 | > 1000 | –
14 | Cc1cc(Nc2cc(Nc3ccc(C(=O)N(C)C)cc3N(C)S(C)(=O)=O)ncn2)nc(C)n1 [Example 77, 4-[[6-[(2,6-dimethylpyrimidin-4-yl)amino]pyrimidin-4-yl]amino]-N,N-dimethyl-3-[methyl(methylsulfonyl)amino]benzamide] | < 0.2 | 10 to 100 | –
15 | Cc1cc(Nc2cc(Nc3ccc(C4CCNC4)cc3N(C)S(C)(=O)=O)ncn2)nc(C)n1 (stereo not shown) [Example 110, N-[2-[[6-[(2,6-dimethylpyrimidin-4-yl)amino]pyrimidin-4-yl]amino]-5-pyrrolidin-3-yl-phenyl]-N-methyl-methanesulfonamide] | 1 to 10 | 100 to 1000 | –
16 | CCn1cnc(-c2cccc(Nc3cc(Nc4cc(C)nc(C)n4)ncn3)c2OC)n1 [Example 46, N4-(2,6-dimethylpyrimidin-4-yl)-N6-[3-(1-ethyl-1,2,4-triazol-3-yl)-2-methoxy-phenyl]pyrimidine-4,6-diamine] | < 0.2 | 10 to 100 | –
17 | Cc1cc(Nc2cc(Nc3ccc(-c4cncn4C)cc3N(C)S(C)(=O)=O)ncn2)nc(C)n1 [Example 24, N-[2-[[6-[(2,6-dimethylpyrimidin-4-yl)amino]pyrimidin-4-yl]amino]-5-(3-methylimidazol-4-yl)phenyl]-N-methyl-methanesulfonamide] | < 0.2 | 10 to 100 | –
18 | COc1c(Nc2cc(Nc3cc(C)nc(C)n3)ncn2)cccc1-c1nc(C)n(C2COC2)n1 [Example 49, N4-(2,6-dimethylpyrimidin-4-yl)-N6-[2-methoxy-3-[5-methyl-1-(oxetan-3-yl)-1,2,4-triazol-3-yl]phenyl]pyrimidine-4,6-diamine] | 0.2 to 1 | > 1000 | –
19 | Cc1cc(Nc2cc(Nc3ccc(C4=CCCOC4)cc3N(C)S(C)(=O)=O)ncn2)nc(C)n1 [Example 94, N-[5-(3,6-dihydro-2H-pyran-5-yl)-2-[[6-[(2,6-dimethylpyrimidin-4-yl)amino]pyrimidin-4-yl]amino]phenyl]-N-methyl-methanesulfonamide] | < 0.2 | < 10 | –
20 | COc1cccc(Nc2cc(Nc3cc(C)nc(C)n3)ncn2)c1 [Example 5, N6-(2,6-dimethylpyrimidin-4-yl)-N4-(3-methoxyphenyl)pyrimidine-4,6-diamine] | 1 to 10 | > 1000 | –
21 | COc1c(Nc2cc(Nc3cc(C)nc(C)n3)ncn2)cccc1-c1nc(C)n(C)n1 [Example 39, N6-(2,6-dimethylpyrimidin-4-yl)-N4-[3-(1,5-dimethyl-1,2,4-triazol-3-yl)-2-methoxy-phenyl]pyrimidine-4,6-diamine] | 0.2 to 1 | 100 to 1000 | –
22 | Cc1cc(Nc2cc(Nc3ccccc3N(C)S(=O)(=O)C(F)(F)F)ncn2)nc(C)n1 [Example 71, N-[2-[[6-[(2,6-dimethylpyrimidin-4-yl)amino]pyrimidin-4-yl]amino]phenyl]-1,1,1-trifluoro-N-methyl-methanesulfonamide] | < 0.2 | 10 to 100 | –
23 | N4-(2,6-dimethylpyrimidin-4-yl)-N6-(3-methoxy-5-tetrahydropyran-2-yl-2-pyridyl)pyrimidine-4,6-diamine [Example 166] | 1 to 10 | – | 100 to 1000
24 | Cc1cc(Nc2cc(Nc3ccccc3S(C)(=O)=O)ncn2)nc(C)n1 [Example 11, N6-(2,6-dimethylpyrimidin-4-yl)-N4-(2-methylsulfonylphenyl)pyrimidine-4,6-diamine] | 0.2 to 1 | 10 to 100 | –
25 | COCCn1cnc(-c2ccnc(Nc3cc(Nc4cc(C)nc(C)n4)ncn3)c2OC)n1 [Example 169, N6-(2,6-dimethylpyrimidin-4-yl)-N4-[3-methoxy-4-[1-(2-methoxyethyl)-1,2,4-triazol-3-yl]-2-pyridyl]pyrimidine-4,6-diamine] | < 0.2 | 10 to 100 | –
26 | CN(c1ccccc1Nc1cc(NC(=O)C2CC2)ncn1)S(C)(=O)=O [Example 14, N-[6-[2-[methyl(methylsulfonyl)amino]anilino]pyrimidin-4-yl]cyclopropanecarboxamide] | 0.2 to 1 | 100 to 1000 | –
27 | Cc1ccc(Nc2cc(Nc3ncc(-c4cnn(C)c4C)cc3N(C)S(C)(=O)=O)ncn2)nn1 [Example 158, N-[5-(1,5-dimethylpyrazol-4-yl)-2-[[6-[(6-methylpyridazin-3-yl)amino]pyrimidin-4-yl]amino]-3-pyridyl]-N-methyl-methanesulfonamide] | < 0.2 | 10 to 100 | –
28 | COc1cc(C#N)cnc1Nc1cc(Nc2cc(C)nc(C)n2)ncn1 [Example 27, 6-[[6-[(2,6-dimethylpyrimidin-4-yl)amino]pyrimidin-4-yl]amino]-5-methoxy-pyridine-3-carbonitrile] | > 10 | > 1000 | –
29 | COc1cc(-c2ncc(F)cn2)ccc1Nc1cc(Nc2cc(C)nc(C)n2)ncn1 [Example 81, N4-(2,6-dimethylpyrimidin-4-yl)-N6-[4-(5-fluoropyrimidin-2-yl)-2-methoxyphenyl]pyrimidine-4,6-diamine] | > 10 | > 1000 | –

Reference: patent publication EP4206196A1, “PYRIMIDINE SUBSTITUTED DERIVATIVES AS TYK2 INHIBITORS” (Almirall S.A., priority 2021, dated 2023)
